One assay deals with BEAS-2B cells. Nature of the assay: In vitro oxygen exposure of BEAS-2B cells, YKL-40 expression by real-time RT-PCR. The format is cell-based, human. Conditions: 95% O2, pretreatment 10 mM 1 hour before oxygen exposure, FIG. 1G. Background: Real-time PCR tracks product formation cycle by cycle.
Another assay concerns mice exposed to 100% O2. Nature of the assay: Hyperoxic acute lung injury (100% O2 exposure) in mice. The assay is classed as in vivo. The source says:
BRP-39^−/− mice were generated and used as previously described (Lee et al., 2009, J Exp Med 206; 1149-1166). The mice were generated on a mixed 129/C57BL/6 background and subsequently bred for more than 10 generations onto a C57BL/6 background. Transgenic mice in which human YKL-40 was tightly and inducibly overexpressed (CC10-rtTA-tTS-YKL-40) in a lung-specific manner were generated with constructs and approaches that have been previously described. (Lee et al., 2009, J Exp Med 206:1149-1166). Mice that lacked BRP-39 and produced YKL-40 only in pulmonary epithelial cells (CC10-rtTA-tTS-YKL-40/BRP-39^−/−) were generated by breeding the CC10-rtTA-tTS-YKL-40 and BRP-39^−/− mice. Mice with caspase-3-null mutations were kindly provided by Dr. Flavell (Dept. of Immunobiology, Yale University School of Medicine). Animal protocols were approved by the Yale University Institutional Animal Care and Use Committee, the guidelines of which were followed for all experiments.
Mice (4-6 wk old) were placed in cages in an airtight Plexiglas chamber (55×40×50 cm), as described previously (Waxman et al., 1998, J Clin Invest 101:1970-1982; Ward et al., 2000, Am J Respir Cell Mol Biol 22:535-542; Wang et al., 2003, J Biol Chem 278:31226-31232). Throughout the experiment, they were given free access to food and water. Oxygen levels were constantly monitored by an oxygen sensor, which was connected to a relay switch incorporated into the oxygen supply circuit. The inside of the chamber was kept at atmospheric pressure, and mice were exposed to a 12-hour light-dark cycle. […]
Bronchoalveolar lavage (BAL; 50 μg) fluids and/or lung lysates were subjected to immunoblot analysis with antibodies against inhibitor of caspase-activated deoxyribonuclease (Chemicon International, Billerica, Mass.), caspase-3 (Cell Signaling Technology, Danvers, Mass.) or β-tubulin (Santa Cruz Biotechnology, Inc.), and the polyclonal rabbit antiserum against BRP-39, as noted above. These samples were fractionated by polyacrylamide gel electrophoresis, transferred to membranes, and evaluated as described previously (Kang et al., 2007, J Exp Med 204:1083-1093).
The levels of BRP-39 in BAL or lung lysates were evaluated by ELISA with an anti-BRP-39 rabbit polyclonal IgG for capture and biotinylated anti-BRP-39, followed by horseradish peroxidase-labeled streptavidin (GE Healthcare, Piscataway, N.J.) for detection. […] The levels of BAL fluid CXCL-1 and CCL-2 were measured by ELISA with commercial kits (R&D Systems, Minneapolis, Minn.), as directed by the manufacturer.
DNA fragmentation and cell death were evaluated with terminal deoxynucleotidyl transferase-mediated dUTP nick end labeling (TUNEL) assays, as previously described. […]

Procedure for BEAS-2B cells: mRNA levels were assessed by real-time reverse transcriptase-polymerase chain reaction, as previously described. […] The sequences for the primers that were used were obtained from Primer Bank online (pga.mgh.harvard.edu/primerbank) Human bronchial epithelial cell line BEAS-2B cells (ATCC, Rockville, Md.) were incubated in complete bronchial epithelial basal medium (Lonza, Walkersville, Md.). They were placed in an airtight modular incubator chamber (Billups-Rothenberg, Del Mar, Calif.), which had been flushed continuously with 95% O2/5% CO2 until the oxygen level inside the chamber reached approximately 95%. The incubator chamber was then placed in a tissue culture incubator at 37° C., the O2 inside the chamber was replaced every 24 hours, and the cells were harvested at the desired time points (24-72 h). The responses in these cells were compared with events in cells incubated in 5% CO2 and air. In select experiments, the cells were incubated with N-acetyl-L-cysteine (Sigma, St. Louis, Mo.), which was added at a dose of 10 mM 1 hour before oxygen exposure, or its vehicle control.

Regarding `CC(=O)N[C@@H](CS)C(=O)O` [N-acetyl-L-cysteine], the “effect on hyperoxia inhibition of YKL-40 expression” value with BEAS-2B cells is given as “abrogated the YKL-40-inhibiting effects of hyperoxia”.

“YKL-40: human homolog of BRP-39, chitinase-like protein; inducibly overexpressed as a transgene in mouse lung epithelium”: in the assay with mice exposed to 100% O2 (BRP-39−/− mice with epithelial-targeted transgenic YKL-40 (CC10-rtTA-tTS-YKL-40/BRP-39−/−), FIG. 5A), the “survival in 100% oxygen” value is recorded as “enhanced the survival”. In the assay on mice exposed to 100% O2 (BRP-39−/− mice with epithelial-targeted transgenic YKL-40, 100% O2, FIGS. 5B-5H), the “augmented hyperoxia-induced responses (permeability, protein leak, tissue and BAL inflammation, KC/CXCL-1 and MCP-1/CCL2, TUNEL-positive cell death, caspase-3 activation)” value is “restored to levels comparable to those in WT animals”. Moreover, the “survival in 100% O2” value in the assay on mice exposed to 100% O2 (CC10-rtTA-tTS-YKL-40 mice on WT genetic background, FIG. 5I) is on record as “enhanced”. Further, the “alveolar capillary permeability alterations, protein leak, tissue and BAL inflammation, KC/CXCL-1 and MCP-1/CCL2 production, TUNEL-positive cell death, caspase-3 activation” value in the assay with mice exposed to 100% O2 (YKL-40 Tg animals on WT genetic background, 100% O2, FIGS. 5B-5H) is “diminished”.
